# Target: T1, SARM1 (50-724) (Homo sapiens, UniProt Q6SZW1)
# T1 sequence (Q6SZW1 50-724): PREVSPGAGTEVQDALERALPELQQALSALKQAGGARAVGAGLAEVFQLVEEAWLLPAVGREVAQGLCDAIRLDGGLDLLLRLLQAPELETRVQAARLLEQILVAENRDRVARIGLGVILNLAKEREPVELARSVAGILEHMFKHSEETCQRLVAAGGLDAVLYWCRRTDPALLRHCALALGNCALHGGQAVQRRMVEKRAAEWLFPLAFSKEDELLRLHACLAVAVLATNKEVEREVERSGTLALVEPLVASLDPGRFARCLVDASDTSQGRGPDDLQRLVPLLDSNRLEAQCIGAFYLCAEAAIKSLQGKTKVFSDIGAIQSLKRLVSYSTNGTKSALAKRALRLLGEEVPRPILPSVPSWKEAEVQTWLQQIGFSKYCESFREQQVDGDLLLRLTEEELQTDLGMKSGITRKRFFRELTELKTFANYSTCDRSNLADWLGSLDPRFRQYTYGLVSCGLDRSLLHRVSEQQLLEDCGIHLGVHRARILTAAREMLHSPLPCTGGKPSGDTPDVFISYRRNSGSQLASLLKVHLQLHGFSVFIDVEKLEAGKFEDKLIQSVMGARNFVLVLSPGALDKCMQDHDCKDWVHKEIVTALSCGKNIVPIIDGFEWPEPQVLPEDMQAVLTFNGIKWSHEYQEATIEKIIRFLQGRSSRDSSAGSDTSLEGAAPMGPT
# Experiment: biochemical
# Description: An enzymatic assay was performed in a 384-well plate using Dulbecco's phosphate-buffered saline (PBS) as the reaction buffer. […] The reaction was initiated by adding a mixture of 200 μM nicotinamide mononucleotide (NMN) as activator and 100 μM NAD^+ as substrate. After 1 h of incubation at room temperature, the reaction was terminated with 10 times volume of 70% acetonitrile, then centrifuged at 3800 rpm for 10 min.
row,Compound,IC50 [nM]
1,"CC(Nc1ccc2c(c1)C(=O)NCC2)c1cccc(Cl)c1Cl (single isomer, unassigned) [Example 111]",< 100
2,"CC(Nc1ccc2nc[nH]c(=O)c2c1)c1cccc(Cl)c1Cl (single isomer, unassigned) [Example 152A]",500 to 1000
3,"CC(Nc1ccc2nc[nH]c(=O)c2c1)c1cccc(Cl)c1Cl (single isomer, unassigned) [Example 152]",< 100
4,"C[C@@H](Nc1ccc2cc[nH]c(=O)c2c1)c1nccc(Cl)c1Cl (single isomer, unassigned) [Example 194A, (S or R)-7-((1-(3,4-dichloropyridin-2-yl)ethyl)amino)isoquinolin-1(2H)-one]",< 100
5,"CC(Nc1ccc2cc[nH]c(=O)c2c1)c1nccc(Cl)c1Cl (single isomer, unassigned) [Example 194B]",> 1000
6,"CC(Nc1ccc2nc[nH]c(=O)c2c1)c1c(Cl)ccc(F)c1Cl (single isomer, unassigned) [Example 201A]",> 1000
7,"CC(Nc1ccc2nc[nH]c(=O)c2c1)c1c(Cl)ccc(F)c1Cl (single isomer, unassigned) [Example 201]",< 100
8,"Cc1n[nH]c(=O)c2cc(N[C@H](C)c3c(Cl)ccc(F)c3Cl)ccc12 (single isomer, unassigned) [Example 237A]",500 to 1000
9,"Cc1n[nH]c(=O)c2cc(N[C@@H](C)c3c(Cl)ccc(F)c3Cl)ccc12 (single isomer, unassigned) [Example 237]",< 100
10,"Cc1n[nH]c(=O)c2cc(N[C@@H](C)c3nc(Cl)c(Cl)s3)ccc12 (single isomer, unassigned) [Example 239A]",< 100
11,"Cc1n[nH]c(=O)c2cc(NC(C)c3nc(Cl)c(Cl)s3)ccc12 (single isomer, unassigned) [Example 239B]",> 1000
12,"CC(Nc1cc(F)c2ncn(-c3ccn[nH]3)c(=O)c2c1)c1nc(Cl)c(Cl)s1 (single isomer, unassigned) [Example 356A]",> 1000
13,"CC(Nc1cc(F)c2ncn(-c3ccn[nH]3)c(=O)c2c1)c1nc(Cl)c(Cl)s1 (single isomer, unassigned) [Example 356]",< 100
14,"CC(Nc1cc(F)c2ncn(-c3cn[nH]c3)c(=O)c2c1)c1nc(Cl)c(Cl)s1 (single isomer, unassigned) [Example 374]",< 100
15,"Cc1c2ccc(NC(C)c3nc(Cl)c(Cl)s3)cc2nn1[C@@H]1CC[C@@H](O)C1 (stereo in doubt) [Compound 335, 3-(6-((1-(4,5-dichlorothiazol-2-yl)ethyl)amino)-3-methyl-2H-indazol-2-yl)cyclopentan-1-ol]",< 100
16,"Cc1c2ccc(NC(C)c3nc(Cl)c(Cl)s3)cc2nn1[C@@H]1CC[C@H](O)C1 (stereo in doubt) [Compound 336, 3-(6-((1-(4,5-dichlorothiazol-2-yl)ethyl)amino)-3-methyl-2H-indazol-2-yl)cyclopentan-1-ol]",< 100
17,"Cc1ccc(Cl)c(S(=O)(=O)Nc2ccc3c(c2)C(=O)NCC3)c1Cl [Compound 2, 2,6-dichloro-3-methyl-N-(1-oxo-3,4-dihydro-2H-isoquinolin-7-yl)benzenesulfonamide]",< 100
18,"Cc1c(F)cccc1S(=O)(=O)Nc1ccc2c(c1)NC(=O)CC2 [Compound 3, 3-fluoro-2-methyl-N-(2-oxo-1,2,3,4-tetrahydroquinolin-7-yl)benzenesulfonamide]",100 to 500

row,Compound,IC50 [nM]
1,Cc1c(F)cccc1S(=O)(=O)Nc1ccc2c(c1)CN(C(=O)OC(C)(C)C)CC2 [Compound 4],> 1000
2,"Cc1c(F)cccc1S(=O)(=O)Nc1ccc2c(c1)C(=O)OCC2 [Compound 5, 3-fluoro-2-methyl-N-(1-oxoisochroman-7-yl)benzenesulfonamide]",> 1000
3,"Cc1c(F)cccc1S(=O)(=O)Nc1ccc2c(c1)C(=O)NCCC2 [Compound 6, 3-fluoro-2-methyl-N-(1-oxo-2,3,4,5-tetrahydro-1H-benzo[c]azepin-8-yl)benzenesulfonamide]",100 to 500
4,"Cc1c(F)cccc1S(=O)(=O)Nc1ccc2c(c1)CC(=O)NC2 [Compound 7, 3-fluoro-2-methyl-N-(3-oxo-1,2,3,4-tetrahydroisoquinolin-6-yl)benzenesulfonamide]",> 1000
5,"Cc1c(F)cccc1S(=O)(=O)Nc1ccc2c(c1)CCC(=O)N2 [Compound 8, 3-fluoro-2-methyl-N-(2-oxo-1,2,3,4-tetrahydroquinolin-6-yl)benzenesulfonamide]",> 1000
6,"Cc1ccccc1S(=O)(=O)Nc1ccc2c(c1)C(=O)NCC2 [Compound 9, 2-methyl-N-(1-oxo-1,2,3,4-tetrahydroisoquinolin-7-yl)benzenesulfonamide]",> 1000
7,"Cc1ccc(F)cc1S(=O)(=O)Nc1ccc2c(c1)C(=O)NCC2 [Compound 10, 5-fluoro-2-methyl-N-(1-oxo-1,2,3,4-tetrahydroisoquinolin-7-yl)benzenesulfonamide]",> 1000
8,"O=S(=O)(Nc1ccc2cc[nH]c2c1)c1cccc(Cl)c1Cl [Compound 11, 2,3-dichloro-N-(1H-indol-6-yl)benzenesulfonamide]",< 100
9,"O=C1NCCc2ccc(NS(=O)(=O)c3cc(F)cc(Br)c3)cc21 [Compound 12, 3-bromo-5-fluoro-N-(1-oxo-1,2,3,4-tetrahydroisoquinolin-7-yl)benzenesulfonamide]",> 1000
10,"Cc1c(Br)cccc1S(=O)(=O)Nc1ccc2c(c1)C(=O)NCC2 [Compound 13, 3-bromo-2-methyl-N-(1-oxo-1,2,3,4-tetrahydroisoquinolin-7-yl)benzenesulfonamide]",< 100
11,"Cc1c(F)cccc1S(=O)(=O)Nc1ccc2c(c1)CCCC2 [Compound 14, 3-fluoro-2-methyl-N-(5,6,7,8-tetrahydronaphthalen-2-yl)benzenesulfonamide]",500 to 1000
12,"Cc1c(F)cccc1S(=O)(=O)Nc1ccc2cc[nH]c(=O)c2c1 [Compound 15, 3-fluoro-2-methyl-N-(1-oxo-1,2-dihydroisoquinolin-7-yl)benzenesulfonamide]",< 100
13,"Cc1ccnc2cc(NS(=O)(=O)c3cccc(Cl)c3Cl)ccc12 [Compound 16, 2,3-dichloro-N-(4-methylquinolin-7-yl)benzenesulfonamide]",100 to 500
14,"Cc1cccc(C)c1S(=O)(=O)Nc1ccc2c(c1)C(=O)NCC2 [Compound 18, 2,6-dimethyl-N-(1-oxo-1,2,3,4-tetrahydroisoquinolin-7-yl)benzenesulfonamide]",500 to 1000
15,"CC1Cc2ccc(NS(=O)(=O)c3cccc(Cl)c3Cl)cc2C(=O)N1 (stereo not drawn) [Compound 19, 2,3-dichloro-N-(3-methyl-1-oxo-1,2,3,4-tetrahydroisoquinolin-7-yl)benzenesulfonamide]",100 to 500
16,"O=C1NCCc2ccc(NS(=O)(=O)c3cccc(Cl)c3Cl)cc21 [Compound 20, 2,3-dichloro-N-(1-oxo-1,2,3,4-tetrahydroisoquinolin-7-yl)benzenesulfonamide]",< 100
17,"Cc1c(F)cccc1S(=O)(=O)Nc1ccc2c(c1)C(=O)N(C)CC2 [Compound 21, 3-fluoro-2-methyl-N-(2-methyl-1-oxo-1,2,3,4-tetrahydroisoquinolin-7-yl)benzenesulfonamide]",100 to 500
18,"O=c1[nH]ccc2ccc(NS(=O)(=O)c3cccc(Cl)c3Cl)cc12 [Compound 22, 2,3-dichloro-N-(1-oxo-1,2-dihydroisoquinolin-7-yl)benzenesulfonamide]",< 100

# Source: US20250320184A1 (SIRONAX LTD., priority 2022, published 2025)
